# Reference: PMC11714206, “Massively Parallel Screening of Toll/Interleukin‐1 Receptor (TIR)‐Derived Peptides Reveals Multiple Toll‐Like Receptors (TLRs)‐Targeting Immunomodulatory Peptides” (Advanced Science, 2024)
# Values joined by “and” are separate entries in the source; they are usually repeats but may differ in a detail not shown here. Identical values can stand only once.
# Target: T1, MAL^TIR (Homo sapiens, UniProt P58753)
# T1 construct: MAL (residues 79–221); 6xHis; made in house; host or cells: E. coli BL21 (DE3)
# Experiment: T‐Surf phage library (P8 and P3) selection against MAL^TIR, four rounds, NGS read counts
# Assay type: binding
# Details: for P8_MAL Rank (after) / P8_MAL Rank (before): P8 library; for P3_MAL Rank (after) / P3_MAL Rank (before): P3 library; for Population: 4th round of selection against MAL TIR, share of NGS reads
# Summary of the method: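 Four panning rounds on TIR domain adsorbed at 5 µg mL^−1; binding 1 h at 20–22 °C, elution with 100 mM HCl. Output: NGS read counts of round‐4 pools versus naïve library.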
# [1] = selection against MAL, rank by count after grouping
# [2] = selection against MAL, rank by count before grouping
# [3] = P8_MAL: rank by count after grouping
# [4] = P8_MAL: rank by count before grouping
# [5] = P3_MAL: rank by count after grouping
# [6] = P3_MAL: rank by count before grouping
# [7] = selection against MAL, rank after grouping
# [8] = selection against MAL, rank before grouping
# [9] = selection against MAL TIR, rank by count after grouping
# [10] = selection against MAL TIR, rank by count before grouping
# [11] = 4R selection against MAL, rank after grouping
# [12] = 4R selection against MAL, rank before grouping
# [13] = P3_MAL pool: P3 T-Surf phage library
# [14] = P8_MAL pool: P8 T-Surf phage library
# T1 sequence (P58753 79-221): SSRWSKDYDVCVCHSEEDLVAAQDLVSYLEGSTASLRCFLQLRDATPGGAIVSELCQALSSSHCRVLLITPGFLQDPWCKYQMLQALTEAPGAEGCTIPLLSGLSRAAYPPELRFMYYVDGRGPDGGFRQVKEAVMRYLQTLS
substance,measurement,setting,value
LFFWGSLKHLLRSGCR,P8_MAL Rank (after),[1],691
same,P8_MAL Rank (before),[2],2059
SSLREGLLRLQELSKK,P3_MAL Rank (after),[1],713
same,P3_MAL Rank (before),[2],3205
RAFSSHLRHHLLAKDQ,P3_MAL Rank (after),[1],678
same,P3_MAL Rank (before),[2],2463
TFLGHLYNMLIQAGIH,Rank (after),[3],393
same,Rank (before),[4],2595
RFWERLRYMMPDSSL,Rank (after),[5],449
same,Rank (before),[6],2320
YAFTGHLHRYLLQRGG,P3_MAL Rank (after),[7],543
same,P3_MAL Rank (before),[8],1418
LQNQWKLALTKVAHLL,P3_MAL Rank (after),[9],219
same,P3_MAL Rank (before),[10],2152
KEVEGWRDALTQAAN,P3_MAL Rank (after),[11],599
same,P3_MAL Rank (before),[12],3565
GFLYQAFAREGLQIFM,Rank (after),[5],164
same,Rank (before),[6],1739
HFSRIQLKSRLGETSF,Rank (after),[3],444
same,Rank (before),[4],2425
AFLYAFLNNLTHPTTF,Rank (after),[3],139
same,Rank (before),[4],1767
RAFVADLDEALKQRAL,Rank (after),[5],182
same,Rank (before),[6],2432
PNLRTTVLKYLIRTKT,Rank (after),[5],446
same,Rank (before),[6],2749
RGLLSHLRHHLLGKDH,Rank (after),[5],450
same,Rank (before),[6],2429
RGFLSHLRHLLQAKDP,P3_MAL Rank (after),[9],193
same,P3_MAL Rank (before),[10],2405
VRHNFIGYLRDALQHR,Rank (after),[5],94
same,Rank (before),[6],94
TFHSHLYNALVQAGIH,P8_MAL Rank (after),[1],678
same,P8_MAL Rank (before),[2],2634
LGFFCNQAKALSDRGI,Rank (after),[5],435
same,Rank (before),[6],2116
WFFPETGKIFEARKTI,P3_MAL Rank (after),[1],709
same,P3_MAL Rank (before),[2],1219
NQWRNALTKVANLV,Population,[13],0.00639%
same,Rank (after),[5],107
same,Rank (before),[6],124
LQNQWKLALTQAAN,P3_MAL Rank (after),[9],231
same,P3_MAL Rank (before),[10],827
FTLAVQVRNLLVGAFI,P8_MAL Rank (after),[9],262
same,P8_MAL Rank (before),[10],1099
AFFWTQLSTVMGKPTM,P8_MAL Rank (after),[7],527
same,P8_MAL Rank (before),[8],1722
AFLYTFLVNLTHPTMF,Rank (after),[3],468
same,Rank (before),[4],1823
ESGKLASGAGKSGQT,P3_MAL Rank (after),[11],598
same,P3_MAL Rank (before),[12],2037
YFLHFLLFSLRKPSI,P8_MAL Rank (after),[9],197
same,P8_MAL Rank (before),[10],779
AFLYTLLNNVLRNPTI,P8_MAL Rank (after),[7],556
same,P8_MAL Rank (before),[8],1888
WFYELLVSLIVRDTKV,Rank (after),[3],394
same,Rank (before),[4],1150
NLLYDLLRWLGIRAFL,Rank (after),[3],403
same,Rank (before),[4],2677
TFLCHLYSTLVQARIH,Rank (after),[3],402
same,Rank (before),[4],2546
PNLRTKVLNYLMRSKT,Population,[13],0.00451%
YAFTGHLHRYLVQRGL,Population,[13],0.00376%
HQKGSYGEAPAEHEKR,Rank (after),[5],397
same,Rank (before),[6],2901
KNLFNELVSKNIRTFM,Rank (after),[3],116
same,Rank (before),[4],732
KMQKWKDALYEAANPT,P3_MAL Rank (after),[1],734
same,P3_MAL Rank (before),[2],3683
AFLWAYLNSVTHPPTF,Rank (after),[3],471
same,Rank (before),[4],1796
WFYEFLVFLILRDTKV,P8_MAL Rank (after),[9],251
same,P8_MAL Rank (before),[10],1143
YAFTGHLPRYLVQRGG,Rank (after),[5],425
same,Rank (before),[6],1373
AFLYTVLINLTHTTYF,P8_MAL Rank (after),[7],517
same,P8_MAL Rank (before),[8],1886
*FYERLVSLILRDTKV,Population,[14],0.00402% and 0.00278%
QLIQPWMELHLHQLHL,P8_MAL Rank (after),[9],246
same,P8_MAL Rank (before),[10],2346
LVVQENLKQLLLFGGL,P3_MAL Rank (after),[1],745
same,P3_MAL Rank (before),[2],2091
RGFLEPLRHHLQAKEQ,P3_MAL Rank (after),[11],649
same,P3_MAL Rank (before),[12],2355
RGFLCHLRHHLQATDH,P3_MAL Rank (after),[1],706
same,P3_MAL Rank (before),[2],2352
LFFWDSLKQLLRSAGR,P8_MAL Rank (after),[7],564
same,P8_MAL Rank (before),[8],2069
PQDLEWFYERLVSLIL,Rank (after),[3],423
same,Rank (before),[4],2328
DDAVWVYEHLVKFLEG,P8_MAL Rank (after),[11],617
same,P8_MAL Rank (before),[12],1988
TFLGHLYNALVQAGKL,P8_MAL Rank (after),[9],230
same,P8_MAL Rank (before),[10],2583
ESIIYQLHRSSERVAN,P3_MAL Rank (after),[7],501
same,P3_MAL Rank (before),[8],2075
WFMNVW*A*FCVIPKX,Population,[14],0.00432%
FTLSVHVRNWLAGAFI,P8_MAL Rank (after),[11],606
same,P8_MAL Rank (before),[12],1091
DWFVSKLSQQILQREK,P3_MAL Rank (after),[1],729
same,P3_MAL Rank (before),[2],1862
WFYERLVSLILRATQV,Rank (after),[3],474
same,Rank (before),[4],1228
